US12521371B2, “Modulators of alpha-synuclein” (KAINOS MEDICINE INC., priority 2017, dated 2026)
pEC50, pIC50: −log10 of the molar value.

How the values were obtained:
[1] = tested on: FAF1; test: FAF1 siRNA treatment of SH-SY5Y cells cotransfected with the alpha-synuclein gene, Western blot; type: cell-based
From the text: FAF1 expression is attenuated by treating SH-SY5Y cells with siRNA (sequence: GUGUUGUGGCACAAACCAU) and reduction in FAF level is confirmed by Western blot of cell extracts using anti-FAF1 antibody. The cells are cotransfected with the alpha-synuclein gene. The level of alpha-synuclein is monitored by Western blot using anti-alpha-synuclein antibody. Clearly, the level of alpha-synuclein is decreased with FAF1 siRNA treatment (FIG. 5).

[2] = tested on: human alpha-synuclein mutant A53T; test: Alpha-synuclein level in brain tissues of alpha-synuclein A53T transgenic mice after oral KM-819, Western blot; type: in vivo; conditions: oral 1, 5, 10 mg/kg/day for 9 days, A53T Tg mice
[3] = tested on: deoxy-glucose induced hypoxia-mediated apoptosis; conditions: at 10 uM; U.S. Pat. No. 7,939,550; cited from earlier work
[4] = molecular target: T1, FAF1-Caspase 8 complex (Homo sapiens, UniProt Q9UNN5); test: Immunoprecipitation assay of FAF1-Caspase 8 complex formation; type: biochemical
T1 construct: host or cells: cell extracts
T1 sequence (Q9UNN5 1-650): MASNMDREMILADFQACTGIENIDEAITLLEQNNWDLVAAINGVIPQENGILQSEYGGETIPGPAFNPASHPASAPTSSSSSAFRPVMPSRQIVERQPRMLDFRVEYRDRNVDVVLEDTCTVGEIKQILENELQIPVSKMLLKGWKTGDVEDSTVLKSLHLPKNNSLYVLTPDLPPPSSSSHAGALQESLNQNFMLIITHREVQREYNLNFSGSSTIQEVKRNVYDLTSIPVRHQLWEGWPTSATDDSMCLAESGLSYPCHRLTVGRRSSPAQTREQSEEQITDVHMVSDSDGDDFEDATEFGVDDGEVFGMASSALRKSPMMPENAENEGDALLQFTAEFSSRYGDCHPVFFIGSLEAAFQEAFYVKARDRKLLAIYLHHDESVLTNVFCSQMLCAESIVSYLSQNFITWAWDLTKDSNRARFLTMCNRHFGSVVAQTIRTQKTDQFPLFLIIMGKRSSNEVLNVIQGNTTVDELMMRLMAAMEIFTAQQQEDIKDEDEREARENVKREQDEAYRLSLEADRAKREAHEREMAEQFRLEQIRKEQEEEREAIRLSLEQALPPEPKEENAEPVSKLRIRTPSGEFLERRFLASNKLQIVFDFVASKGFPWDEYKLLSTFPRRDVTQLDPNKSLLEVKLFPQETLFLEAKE
From the text: (§1) FAF1 activates apoptotic stress by various stimuli through activation of caspase cascade and necrosis as described (Yu C et al. 2016). The direct targets of FAF1 are caspase 8 and JNK in these two pathways, respectively. And the step of this activation is forming these complexes followed by activation of the downstream targets.
(§2) The inhibition of the complex formation of FAF1-Caspase 8 and FAF1-JNK by KM-819 is confirmed by the usual immunoprecipitation assays using a caspase8 DED antibody and a JNK antibody, and bound and precipitated FAF1 are measured by Western blot using anti-FAF1 antibody. Clearly, KM-819 inhibits the complex formation effectively, about 80% inhibition at 0.1 uM (FIG. 8).

[5] = molecular target: T2, FAF1-JNK complex (Homo sapiens, UniProt Q9UNN5); test: Immunoprecipitation assay of FAF1-JNK complex formation; type: biochemical
T2 construct: host or cells: cell extracts
T2 sequence (Q9UNN5 1-650): T1 sequence (Q9UNN5 1-650)
From the text: as §1, §2

[6] = tested on: JNK; test: JNK activation measured as JNK autophosphorylation, Western blot; type: cell-based; conditions: autophosphorylation of JNK
Experimental: (§3) The inhibition of activation of Caspase 8 and JNK by KM-819 is confirmed by assaying the cleavage of the Caspase 8 substrate, Caspase 3, and autophosphorylation of JNK, respectively (FIG. 9). The cells are treated with different concentration of KM-819 as indicated and the levels of cleaved Caspase 3 and autophosphorylated form of JNK are measured by Western blot using anti-Caspase 3 antibody and anti-phospho-JNK antibody, respectively. Clearly, KM-819 inhibits the activity of Caspase 8 and JNK activation (FIG. 9).

[7] = tested on: LC3 and p62; test: Autophagy promotion: LC3 and p62 levels in SH-SY5Y cells overexpressing FAF1, Western blot; type: cell-based
Experimental: EC50 for autophagy promotion of KM-819 is 1 nM.

[8] = tested on: alpha-synuclein; test: Alpha-synuclein level in SH-SY5Y cells co-transfected with FAF1-Flag and alpha-synuclein-GFP, Western blot; type: cell-based
Experimental: To confirm if FAF1 inhibitor decreases the alpha-synuclein level in cells, SH-SY5Y cells are treated with the FAF1 inhibitor KM-819 (KR-88493, U.S. Pat. No. 7,939,550, Yoo S E et al. 2016). Cells are co-transfected with genes encoding FAF1 tagged with Flag and alpha-synuclein tagged with GFP. The alpha-synuclein level is measured by Western blot of cell extracts using anti-GFP antibody. The FAF1 level is measured by Western blot of cell extracts using anti-Flag antibody. Clearly, the level of alpha-synuclein is decreased upon treatment with FAF1 inhibitor (FIG. 11). […] This is much higher efficacy compared to the apoptosis inhibition activity measured in the prior art, 70% inhibition at 10 uM. Note that FAF1 level itself is not changed by treatment with FAF1 inhibitor.

[9] = tested on: Caspase 8; test: Caspase 8 activation measured as Caspase 3 cleavage, Western blot; type: cell-based; conditions: cleavage of Caspase 3
Experimental: as §3

FAF1 siRNA: siRNA (sequence: GUGUUGUGGCACAAACCAU) that attenuates FAF1 expression in SH-SY5Y cells (chemistry not given here)
level of alpha-synuclein ([1]; SH-SY5Y cells cotransfected with alpha-synuclein gene): decreased | FAF1 expression ([1]; SH-SY5Y cells, anti-FAF1 Western blot): attenuated

O=C(CSc1ccc(Br)cc1)Nc1cn(CCc2ccccc2)nc1C(=O)O [KM-819, 4-[2-(4-bromo-phenylsulfanyl)-acetylamino]-1-phenethyl-1H-pyrazole-3-carboxylic acid]
FAF1 level in midbrain [2]: not changed | level of S129 phosphorylated alpha-synuclein in midbrain [2]: decreased | level of alpha-synuclein in cerebellum [2]: decreased | level of alpha-synuclein in cortex [2]: decreased | level of alpha-synuclein in hippocampus [2]: decreased | level of alpha-synuclein in midbrain [2]: decreased | level of alpha-synuclein in striatum [2]: decreased | inhibition of apoptosis [3]: 70% | inhibition at 0.1 µM [4]: ~80% | inhibition at 0.1 µM [5]: ~80% | pIC50 [6]: 6.60 | LC3 level [7]: increases | p62 protein level [7]: decreases | pEC50 ([7]; Homo sapiens, read-out: EC50 for autophagy promotion (modulating LC-3 and p62 levels)): 9.00 | pEC50 ([8]; Homo sapiens, SH-SY5Y, as stated in description b51, read-out: EC50 for decreasing the amount of alpha-synuclein in cells): 7.70 | inhibition at 10 µM ([8]; Homo sapiens, SH-SY5Y, at 10 uM): > 95% | pIC50 ([8]; Homo sapiens, SH-SY5Y cells, FAF1-Flag and alpha-synuclein-GFP, read-out: IC50 for decrease of alpha-synuclein level): 7.70 | FAF1 level ([8]; SH-SY5Y cells, anti-Flag Western blot): not changed | pIC50 [9]: 6.14
